Laboratory results: US11919901B2 (Syndax Pharmaceuticals, Inc., priority 2021, dated 2024)
Where two headings read alike, the source gives them in different places.

Columns and labels:
MV4-11 cells = experiment: Cell proliferation assay MV4;11 (CellTiter-Glo, 72 hours); type: cell-based; conditions: Homo sapiens, read-out: MV4
Method in brief: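 MV4-11 cells (MLL1-AF4 fusion) exposed 72 h at 37 °C to 8 compound concentrations, final 0.632–2000 nM. Viability by CellTiter-Glo luminescence as % of vehicle RLU; % max inhibition = 100 − viability at top concentration.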

[1] = target: human Menin and N-terminal portion of human MLL (amino acids 4-43) (Homo sapiens (Human), UniProt O00255); experiment: Menin-MLL competition assay (HTRF); type: binding; conditions: 1 hr incubation
Source text: Menin-MLL is a competition assay between human Menin and N-terminal portion of human MLL representing amino acids 4-43 of the protein. The interaction between Menin and MLL peptide was monitored by HTRF employing Terbium labeled anti-His6 antibody directed to the N-terminal His6-tag on recombinant Menin and FITC group covalently attached to the MLL peptide. The N-terminal fragment of MLL, retained in all MLL fusion proteins, is involved in the interactions with Menin, and this protein-protein interaction is critical for the MLL fusion proteins mediated leukemogenic transformations.
For IC50 determination test compounds were prepared as 10 mM DMSO stock solutions. Considering DMSO as the vehicle in the assay system. Lower sub-stocks of 50 μM were prepared from the 10 mM stock solution. To test the compounds in assay, 3.16-fold serial dilutions are made in 100% DMSO. Mid-stock of 50× compounds (50 μM) were serially diluted (3.16 fold) in 100% DMSO in Polypropylene plate. In assay plate 1 micro-litre of the previously prepared compound dilution was stamped. H-FL-Menin diluted to 4 nM in assay buffer (50 mM Tris-HCl, pH 7.4, 50 mM NaCl, freshly prepared 1 mM DTT, 0.01% BSA, 0.005% Triton X-100) was pre-incubated with 8 nM anti-His6-Tb for 30 min at room temperature. […]

[2] = MV4;11 leukemia cell line, 72 hours, 11 IC50

Sequence of human Menin and N-terminal portion of human MLL (amino acids 4-43) (O00255 whole entry, the tested form may be a part): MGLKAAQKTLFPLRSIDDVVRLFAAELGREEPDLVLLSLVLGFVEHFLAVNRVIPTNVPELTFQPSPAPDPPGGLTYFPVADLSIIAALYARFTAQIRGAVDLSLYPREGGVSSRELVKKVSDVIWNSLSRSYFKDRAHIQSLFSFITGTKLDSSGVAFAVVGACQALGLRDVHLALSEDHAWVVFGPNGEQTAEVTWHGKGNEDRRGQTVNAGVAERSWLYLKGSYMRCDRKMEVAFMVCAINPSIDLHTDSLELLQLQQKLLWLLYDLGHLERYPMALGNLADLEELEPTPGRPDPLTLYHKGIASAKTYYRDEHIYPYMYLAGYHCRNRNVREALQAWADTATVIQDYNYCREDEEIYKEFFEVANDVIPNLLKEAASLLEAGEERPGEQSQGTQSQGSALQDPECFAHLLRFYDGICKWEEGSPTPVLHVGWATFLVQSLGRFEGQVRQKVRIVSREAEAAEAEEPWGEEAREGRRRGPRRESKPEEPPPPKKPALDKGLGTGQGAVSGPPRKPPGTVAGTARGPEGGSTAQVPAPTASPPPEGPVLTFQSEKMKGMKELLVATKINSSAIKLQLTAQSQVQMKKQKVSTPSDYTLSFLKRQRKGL

Structure (SMILES)	IC50 (MV4-11 cells; [2]) [nM]	IC50 [1] [nM]	IC50 (MV4-11 cells; MV4-11, 72 h, 11 IC50 (nM)) [nM]
CCN(C(=O)c1cc(F)ccc1Oc1cncnc1N1CC2(CCN(C[C@H]3CC[C@H](NS(=O)(=O)CC)CO3)CC2)C1)C(C)C [Example 52, N-Ethyl-2-((4-(7-(((2R,5S)-5-(ethylsulfonamido)tetrahydro-2H-pyran-2-yl)methyl)-2,7-diazaspiro[3.5]nonan-2-yl)pyrimidin-5-yl)oxy)-5-fluoro-N-isopropylbenzamide]	100 to 1000	< 100	
CC(C)N(C(=O)c1cc(F)ccc1Oc1cncnc1N1CC2(CCN(C[C@@H]3CC[C@@H](NS(=O)(=O)N4CCC4)CO3)CC2)C1)C1COC1 [Example 248, 2-((4-(7-(((2S,5R)-5-(Azetidine-1-sulfonamido)tetrahydro-2H-pyran-2-yl)methyl)-2,7-diazaspiro[3.5]nonan-2-yl)pyrimidin-5-yl)oxy)-5-fluoro-N-isopropyl-N-(oxetan-3-yl)benzamide]	< 100		
CC(C)N(C(=O)c1cc(F)ccc1Oc1cncnc1N1CC2(CCN(C[C@@H]3CC[C@@H](NS(=O)(=O)N(C)C)CO3)CC2)C1)C1COC1 [Example 249, 2-((4-(7-(((2S,5R)-5-((N,N-Dimethylsulfamoyl)amino)tetrahydro-2H-pyran-2-yl)methyl)-2,7-diazaspiro[3.5]nonan-2-yl)pyrimidin-5-yl)oxy)-5-fluoro-N-isopropyl-N-(oxetan-3-yl)benzamide]	< 100		
CCS(=O)(=O)N[C@@H]1CC[C@@H](CN2CCC3(CC2)CN(c2ncncc2Oc2ccc(F)cc2C(=O)N(C(C)C)C2CCOCC2)C3)OC1 [Example 250, 2-((4-(7-(((2S,5R)-5-(Ethylsulfonamido)tetrahydro-2H-pyran-2-yl)methyl)-2,7-diazaspiro[3.5]nonan-2-yl)pyrimidin-5-yl)oxy)-5-fluoro-N-isopropyl-N-(tetrahydro-2H-pyran-4-yl)benzamide]	< 100		
CCS(=O)(=O)N[C@@H]1CC[C@@H](CN2CCC3(CC2)CN(c2ncncc2Oc2ccc(F)cc2C(=O)N(C(C)C)[C@@H]2C[C@@H]4CC[C@H]2O4)C3)OC1 [Example 251, N-((1R,2R,4S)-7-Oxabicyclo[2.2.1]heptan-2-yl)-2-((4-(7-(((2S,5R)-5-(ethylsulfonamido)tetrahydro-2H-pyran-2-yl)methyl)-2,7-diazaspiro[3.5]nonan-2-yl)pyrimidin-5-yl)oxy)-5-fluoro-N-isopropylbenzamide]	< 100		
CCS(=O)(=O)N[C@@H]1CC[C@@H](CN2CCC3(CC2)CN(c2ncncc2Oc2ccc(F)cc2C(=O)N(C(C)C)C2CC4(COC4)C2)C3)OC1 [Example 252, 2-((4-(7-(((2S,5R)-5-(Ethylsulfonamido)tetrahydro-2H-pyran-2-yl)methyl)-2,7-diazaspiro[3.5]nonan-2-yl)pyrimidin-5-yl)oxy)-5-fluoro-N-isopropyl-N-(2-oxaspiro[3.3]heptan-6-yl)benzamide]	< 100		
COCCN(C(=O)c1cc(F)ccc1Oc1cncnc1N1CC2(CCN(C[C@@H]3CC[C@@H](NS(=O)(=O)c4ccccc4)CO3)CC2)C1)C(C)C [Example 254, 5-Fluoro-N-isopropyl-N-(2-methoxyethyl)-2-((4-(7-(((2S,5R)-5-(phenylsulfonamido)tetrahydro-2H-pyran-2-yl)methyl)-2,7-diazaspiro[3.5]nonan-2-yl)pyrimidin-5-yl)oxy)benzamide]	< 100		
CCS(=O)(=O)N[C@@H]1CC[C@@H](CN2CCC3(CC2)CN(c2ncncc2Oc2ccc(F)cc2C(=O)N(C[C@@H](O)CO)C(C)C)C3)OC1 [Example 255, N-((R)-2,3-Dihydroxypropyl)-2-((4-(7-(((2S,5R)-5-(ethylsulfonamido)tetrahydro-2H-pyran-2-yl)methyl)-2,7-diazaspiro[3.5]nonan-2-yl)pyrimidin-5-yl)oxy)-5-fluoro-N-isopropylbenzamide]			100 to 1000
CCS(=O)(=O)N[C@@H]1CC[C@@H](CN2CCC3(CC2)CN(c2ncncc2Oc2ccc(F)cc2C(=O)N(C(C)C)[C@@H]2CC[C@@H]2O)C3)OC1 [Example 258, 2-((4-(7-(((2S,5R)-5-(Ethylsulfonamido)tetrahydro-2H-pyran-2-yl)methyl)-2,7-diazaspiro[3.5]nonan-2-yl)pyrimidin-5-yl)oxy)-5-fluoro-N-((1R,2S)-2-hydroxycyclobutyl)-N-isopropylbenzamide]	< 100		
